Molecular target: HPK1 (Homo sapiens (Human), UniProt Q92918)
Test: HPK1 Inhibition Assay (ADP-Glo kinase assay)
Assay type: biochemical
Conditions: ATP 10 μM
In short: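 ADP-Glo luminescence read-out after 1 h room-temperature kinase reaction with 10 μM ATP and 0.1 μg/ml MBP. Recombinant human HPK1 at 7.5 ng/μl; buffer 40 mM Tris pH 7.5, 20 mM MgCl2. Compounds serially diluted 5-fold over 10 points from 10 mM DMSO stock.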

Sequence of HPK1 (Q92918 1-346 limits assumed): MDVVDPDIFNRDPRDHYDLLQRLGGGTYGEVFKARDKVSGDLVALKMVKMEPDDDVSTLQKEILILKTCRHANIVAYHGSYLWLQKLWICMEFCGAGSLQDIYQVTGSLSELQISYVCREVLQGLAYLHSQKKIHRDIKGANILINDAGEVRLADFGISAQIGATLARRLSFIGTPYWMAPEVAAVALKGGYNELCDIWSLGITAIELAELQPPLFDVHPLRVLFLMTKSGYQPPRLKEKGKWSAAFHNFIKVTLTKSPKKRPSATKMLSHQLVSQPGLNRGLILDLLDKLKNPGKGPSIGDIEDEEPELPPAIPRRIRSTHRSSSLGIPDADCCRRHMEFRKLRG

Cc1nc2c(N3CC[C@H](N)C3)c(NC(=O)c3ccc(=O)n(-c4c(F)cccc4F)n3)ccc2n1C1CCN(C)CC1 [Example 106, (S)—N-(4-(3-aminopyrrolidin-1-yl)-2-methyl-1-(1-methylpiperidin-4-yl)-1H-benzo[d]imidazol-5-yl)-1-(2,6-difluorophenyl)-6-oxo-1,6-dihydropyridazine-3-carboxamide]
IC50: < 0.1 µM

Cc1nc2c(N3CC[C@H](N)C3)c(NC(=O)c3ccc(=O)n(-c4c(Cl)cccc4Cl)n3)ccc2n1C [Example 107, (S)—N-(4-(3-aminopyrrolidin-1-yl)-1,2-dimethyl-1H-benzo[d]imidazol-5-yl)-1-(2,6-dichlorophenyl)-6-oxo-1,6-dihydropyridazine-3-carboxamide]
IC50: 0.1 to 1 µM

CC(C)c1nc2c(N3CC[C@@H](N)C3)c(NC(=O)c3ccc(=O)n(-c4c(F)cccc4F)n3)ccc2n1C [Example 109, (R)—N-(4-(3-aminopyrrolidin-1-yl)-2-isopropyl-1-methyl-1H-benzo[d]imidazol-5-yl)-1-(2,6-difluorophenyl)-6-oxo-1,6-dihydropyridazine-3-carboxamide]
IC50: < 0.1 µM

CC(C)c1nc2c(N3C[C@@H](C)[C@@H](N)C3)c(NC(=O)c3ccc(=O)n(-c4c(F)cccc4F)n3)ccc2n1C [Example 110, N-(4-((3R,4R)-3-amino-4-methylpyrrolidin-1-yl)-2-isopropyl-1-methyl-1H-benzo[d]imidazol-5-yl)-1-(2,6-difluorophenyl)-6-oxo-1,6-dihydropyridazine-3-carboxamide]
IC50: < 0.1 µM

CC(C)c1nc2c(N3C[C@H](C)[C@@H](N)C3)c(NC(=O)c3ccc(=O)n(-c4c(F)cccc4F)n3)ccc2n1C [Example 111, N-(4-((3R,4S)-3-amino-4-methylpyrrolidin-1-yl)-2-isopropyl-1-methyl-1H-benzo[d]imidazol-5-yl)-1-(2,6-difluorophenyl)-6-oxo-1,6-dihydropyridazine-3-carboxamide]
IC50: < 0.1 µM

CC(C)c1nc2c(N3CC4C[C@]4(N)C3)c(NC(=O)c3ccc(=O)n(-c4c(F)cccc4F)n3)ccc2n1C (stereo partly drawn) [Example 112, N-(4-((1R)-1-amino-3-azabicyclo[3.1.0]hexan-3-yl)-2-isopropyl-1-methyl-1H-benzo[d]imidazol-5-yl)-1-(2,6-difluorophenyl)-6-oxo-1,6-dihydropyridazine-3-carboxamide]
IC50: < 0.1 µM

CC(C)c1nc2c(N3C[C@H](N)C4(COC4)C3)c(NC(=O)c3ccc(=O)n(-c4c(F)cccc4F)n3)ccc2n1C [Example 113, (R)-N-(4-(8-amino-2-oxa-6-azaspiro[3.4]octan-6-yl)-2-isopropyl-1-methyl-1H-benzo[d]imidazol-5-yl)-1-(2,6-difluorophenyl)-6-oxo-1,6-dihydropyridazine-3-carboxamide]
IC50: < 0.1 µM

CC(C)n1cc2c(N3CC[C@@H](N)C3)c(NC(=O)c3ccc(=O)n(-c4c(F)cccc4F)n3)ccc2n1 [Example 114, (R)-N-(4-(3-aminopyrrolidin-1-yl)-2-isopropyl-2H-indazol-5-yl)-1-(2,6-difluorophenyl)-6-oxo-1,6-dihydropyridazine-3-carboxamide]
IC50: < 0.1 µM

CC(C)c1nc2c(N3CC[C@H](CN)C3)c(NC(=O)c3ccc(=O)n(-c4c(F)cccc4F)n3)ccc2n1C [Example 115, (R)-N-(4-(3-(aminomethyl)pyrrolidin-1-yl)-2-isopropyl-1-methyl-1H-benzo[d]imidazol-5-yl)-1-(2,6-difluorophenyl)-6-oxo-1,6-dihydropyridazine-3-carboxamide]
IC50: < 0.1 µM

CC(C)c1nc2c(N3CC[C@@H](CN)C3)c(NC(=O)c3ccc(=O)n(-c4c(F)cccc4F)n3)ccc2n1C [Example 116, (S)-N-(4-(3-(aminomethyl)pyrrolidin-1-yl)-2-isopropyl-1-methyl-1H-benzo[d]imidazol-5-yl)-1-(2,6-difluorophenyl)-6-oxo-1,6-dihydropyridazine-3-carboxamide]
IC50: < 0.1 µM
